Data on three compounds can be found in US12600716B2 (Gannex Pharma Co., Ltd., priority 2020, dated 2026).

Molecules are shown by their SMILES. Like-named read-outs stand apart in the source and are kept apart here.

Series [1] deals with STZ+DEN+HFD induced NASH model. Description: STZ+DEN+HFD induced NASH model in mice. It counts as in vivo, male C57BL/6 mice. The procedure: Therapeutic efficacy of FXR compounds was evaluated in STZ+DEN+HFD induced NASH model in male C57BL/6 mice. Briefly, newborn male C57BL/6 mice were injected with streptozocin (STZ) at Week 2 to introduce diabetes and diethylnitrosamine (DEN) at Week 4 to promote liver fibrosis. Mice receiving neither STZ nor DEN were used as negative control (Group 1, n=12) and were fed with normal diet. At Week 6, 60 diabetic mice were selected (blood glucose>12 mmol/L after 6 h of fasting) and were fed with high fat diet (HFD, diet that contains 60 kcal % fat). After one week on HFD, animals were randomly assigned into 5 groups based on body weight: Group 2 (n=12), disease model group, no compound treatment; Group 3 (n=10), positive control group, treated with OCA (30 mg/kg); Group 4 (n=12), treated with Compound 1 (3 mg/kg); Group 5 (n=12), treated with Compound 1 (10 mg/kg); Group 6 (n=12), treated with Compound 1 (30 mg/kg). OCA and Compounds 1 were PO QD, for 7 weeks. On the day after last dose, all animals were euthanized and liver tissues were fixed with formalin for pathological evaluation.

Series [2] deals with DEN+HFD+CHOL induced NASH model. Briefly: DEN+HFD+CHOL induced NASH model in rats. The class given is in vivo, male SD rats. The procedure: Therapeutic efficacy of FXR compounds was evaluated in DEN+HFD+CHOL induced NASH model in male SD rats. Newborn male rats received DEN injection at Week 2 after birth to generate NASH model. Negative control animals (Group 1, n=10) received no DEN injection. At Week 4, 50 rats that received DEN injections started HFD+CHOL diet (60 kcal % Fat+1.25% Cholesterol+0.5% cholate) for 8 weeks, while negative control animals were still on normal diet. At Week 5, DEN treated rats were randomly assigned into 5 groups (Group 2-6) based on body weight. Disease Group (Group 2, n=10), received no treatment; OCA group (Group 3, n=10) received OCA at 30 mg/kg. Group 4-6 (n=10 each) received Compound 1 at low (3 mg/kg), […], and […]. OCA and Compound 1 were given PO QD, for 7 weeks. On the day after last dose, all animals were euthanized and liver tissues were fixed with formalin for pathological evaluation.

Series [3] can be described thus: Mouse pharmacokinetic studies (IV and PO). The class given is in vivo, Male CD-1 mice. The settings on record: for PO F: PO 10 mg/kg vs IV 2.0 mg/kg; for Vd / AUC(0-t) / clearance / half-life / Cmax / Tmax: male, CD-1, plasma; for clearance: read-out: IV Cl; for half-life: read-out: IV T½ (converted). The procedure: Mouse Pharmacokinetic Studies
Typical PK study procedure. For i.v. PK studies, a group of three fasted Male CD-1 mice were dosed with the compound (2.0 mg/kg, 0.50 mg/mL in 5% solutol in saline, clear solution), and 0.02 mL blood was collected at 0.0830, 0.250, 0.500, 1.00, 2.00, 4.00, 8.00, 24.0 h. For PO PK studies, a group of three fasted Male CD-1 mice were dosed with the compound (10 mg/kg, 1 mg/mL in 5% solutol in saline, clear solution), and 0.02 mL blood was collected at 0.250, 0.500, 1.00, 2.00, 4.00, 6.00, 8.00, 24.0 h. The blood was collected into EP tubes (containing EDTA K20.85-1.15 mg) and centrifuged at 3,000 g or 3,200 g at 4° C. for 10 min) and plasma was isolated and divided into two vials. One was used for bioanalysis and one was kept as backup. The samples were kept at −60° C. or below, until being analyzed by LC MS/MS. The samples were analyzed with AB SCIEX INSTRUMENTS LC-MS/MS AU-Triple Quad 6500 Plus and data were processed with Phoenix WinNonlin 6.3 (IV-noncompartmental model and PO-noncompartmental model).

Series [4] deals with T1, hFXR-LBD-GAL4 (Homo sapiens, UniProt Q96RI1).
T1 construct: GAL4 (fusion partner); host or cells: HEK293T
T1 sequence (Q96RI1 262-486 limits assumed): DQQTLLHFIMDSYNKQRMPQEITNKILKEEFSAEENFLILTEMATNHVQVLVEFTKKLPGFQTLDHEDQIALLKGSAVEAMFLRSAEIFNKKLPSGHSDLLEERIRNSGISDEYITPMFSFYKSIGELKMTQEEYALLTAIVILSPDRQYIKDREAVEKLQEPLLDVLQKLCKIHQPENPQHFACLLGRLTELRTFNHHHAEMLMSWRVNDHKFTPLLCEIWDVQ
Description: FXR agonist transactivation ability: luciferase reporter gene in HEK293T. The class given is cell-based. The settings on record: read-out: Cell activity. (In general: In a reporter assay the amount or activity of a reporter protein is the signal.)

Series [5] has as its target T2, human FXR protein (Homo sapiens, UniProt Q96RI1).
T2 construct: purchased Invitrogen
Description: FXR agonist binding ability: time-resolved fluorescence (LanthaScreen) FXR/coactivator assay. The class given is biochemical. The conditions noted are these: GST-labeled human FXR, fluorescein-labeled coactivator, TR-FRET. The method, boiled down: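 GST-tagged human FXR (20 nM final) with fluorescein-labeled SRC2-2 coactivator and GST antibody was exposed to 10-point 3-fold compound dilutions in buffer G, 1 h at room temperature in the dark. TR-FRET was read at 520/495 nm, and EC50 was calculated for activation of the coactivator interaction.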
In general terms: TR-FRET usually uses a lanthanide donor and a delayed reading to cut background.

The mark [6] stands for this setting: IV 2.0 mg/kg, read-out: IV AUC 0-t.
Where [7] appears, read: PO 10 mg/kg, read-out: PO AUC 0-t.

The AUC(0-t) is exposure summed from dosing to a finite time, without extrapolation to infinity. By Cmax is commonly meant the peak of the concentration-time curve. The Tmax is the time from dosing to the highest level. Regarding `O=C(O)c1ccc(Oc2ccc3cc(OCc4c(-c5c(Cl)cccc5Cl)noc4C4CC4)ccc3c2)nc1` [Compound 1, 6-((6-((5-cyclopropyl-3-(2,6-dichlorophenyl)isoxazol-4-yl)methoxy)naphthalen-2-yl)oxy)nicotinic acid], in series [1] (30 mg/kg PO QD 7 weeks), the NAS score result is recorded as “significantly decreases”, the “decreased NAS score as compared with the model group” value is 46.2% and the lowered cirrhosis percentage stood at 15.2%. In addition, the “hepatocyte steatosis (FIG. 1)” value in series [1] (3, 10 and 30 mg/kg PO QD 7 weeks, p<0.001) is on record as “dose dependent decrease”. The “progress of liver fibrosis (FIG. 2)” value in series [1] (low (3 mg/kg) and high doses (30 mg/kg) PO QD 7 weeks) is recorded as “significantly inhibited”. Besides, in series [2] (30 mg/kg PO QD 7 weeks), the “NAS score lowered as compared to the model group” value stood at 42.9% and the lowered cirrhosis percentage stood at 28.0%. In addition, in series [2] (3, 10 and 30 mg/kg PO QD 7 weeks, all p<0.001), the “NAS score (FIG. 3)” value is “dose dependent decrease”. Moreover, the “progress of liver fibrosis (FIG. 4)” value in series [2] (3, 10 and 30 mg/kg PO QD 7 weeks, p<0.01) is reported as “significantly inhibited”. Further, the “PO F” value in series [3] came out at 33%. Moreover, in series [3] (IV 2.0 mg/kg), the Vd is 1.75 L/kg, the clearance worked out at 2.84 L/h/kg and the half-life is 51 min. Moreover, the AUC(0-t) in series [3] (setting [6]) amounted to 0.705 µg·h/mL. In series [3] (PO 10 mg/kg), the Cmax came to 0.641 µg/mL and the Tmax came to 49.8 min. In addition, in series [3] (setting [7]), the AUC(0-t) is 1.16 µg·h/mL.
On to `Cc1cc(C(=O)O)cnc1Oc1c(F)ccc2cc(OCc3c(-c4c(Cl)cccc4Cl)noc3C3CC3)ccc12` [Compound 47, 6-((6-((5-cyclopropyl-3-(2,6-dichlorophenyl)isoxazol-4-yl)methoxy)-2-fluoronaphthalen-1-yl)oxy)-5-methylnicotinic acid], for which the EC50 in series [4] is below 0.2 µM. In addition, the “PO F” value in series [3] is given as 28.6%. In series [3] (IV 2.0 mg/kg), the Vd amounted to 0.495 L/kg, the clearance was 1.33 L/h/kg and the half-life is 38.3 min. Besides, the AUC(0-t) in series [3] (setting [6]) came out at 1.5 µg·h/mL. For the same compound, in series [3] (PO 10 mg/kg), the Cmax amounted to 2.15 µg/mL and the Tmax amounted to 30 min. The AUC(0-t) in series [3] (setting [7]) came to 2.14 µg·h/mL. In series [5], this compound displayed an EC50 below 0.05 µM.
For `CC[C@H]1[C@@H](O)[C@@H]2[C@H](CC[C@]3(C)[C@@H]([C@H](C)CCC(=O)O)CC[C@@H]23)[C@@]2(C)CC[C@@H](O)C[C@@H]12` [OCA, reference compound], the NAS score entry in series [1] (30 mg/kg PO QD 7 weeks) was “decrease in NAS score”; in series [2] (30 mg/kg PO QD 7 weeks, p<0.001), “decrease in NAS score”.
